Data from ChEMBL document CHEMBL1201862, “PubChem BioAssay data set” (2004).
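Following 48 hours of exposure in 96-well plates, responses at five concentrations were used to interpolate endpoints linearly. GI50: concentration for 50% inhibition of growth.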 Activity calls are given as the source filed them. Rule as the data show it: active = GI50 up to about 1.1 µM and inactive = higher.

Assays:
Assay in all cases: NCI-60 cell line screen, 48 h
ACHN = system: ACHN
CAKI-1 = system: CAKI-1
HCT-116 = system: HCT-116
HCT-15 = system: HCT-15
HOP-92 = system: HOP-92
M14 = system: M14
MDA-MB-435 = system: MDA-MB-435
Malme-3M = system: Malme-3M
NCI-H226 = system: NCI-H226
NCI-H460 = system: NCI-H460
NCI-H522 = system: NCI-H522
OVCAR-4 = system: OVCAR-4
RPMI-8226 = system: RPMI-8226
SF-295 = system: SF-295
SF-539 = system: SF-539
SK-MEL-2 = system: SK-MEL-2
SNB-19 = system: SNB-19
U-251 = system: U-251
UO-31 = system: UO-31
RXF 393 = system: RXF 393

| Structure (SMILES) | GI50 (ACHN) | GI50 (CAKI-1) | GI50 (HCT-116) | GI50 (HCT-15) | GI50 (HOP-92) | GI50 (M14) | GI50 (MDA-MB-435) | GI50 (Malme-3M) | GI50 (NCI-H226) | GI50 (NCI-H460) | GI50 (NCI-H522) | GI50 (OVCAR-4) | GI50 (RPMI-8226) | GI50 (SF-295) | GI50 (SF-539) | GI50 (SK-MEL-2) | GI50 (SNB-19) | GI50 (U-251) | GI50 (UO-31) | GI50 (RXF 393) |
| --- | --- | --- | --- | --- | --- | --- | --- | --- | --- | --- | --- | --- | --- | --- | --- | --- | --- | --- | --- | --- |
| CCC1(O)C(=O)OCc2c1cc1n(c2=O)Cc2cc3cc(N)ccc3nc2-1 (stereo not given) | < 0.01 µM (active) | < 0.01 µM (active) | < 0.01 µM (active) | 0.0721 µM | 0.0535 µM (active) | < 0.01 µM (active) | 0.0241 µM (active) | 0.0299 µM (active) | < 0.0338 µM (active) | < 0.01 µM (active) | < 0.01 µM (active) | 0.257 µM (active) | 0.0341 µM (active) | < 0.01 µM (active) | < 0.01 µM (active) | 0.0964 µM (active) | < 0.01 µM (active) | < 0.01 µM (active) | < 0.01 µM (active) |  |
| C[C@]12C(=O)OC[C@H](c3ccccc3)N1C(=O)N(Cc1ccccc1)[C@@H]2CO | > 100 µM (inactive) | > 100 µM (inactive) | > 100 µM (inactive) | > 100 µM | > 100 µM (inactive) | > 100 µM (inactive) | > 100 µM (inactive) | > 100 µM (inactive) | > 100 µM (inactive) | > 100 µM (inactive) |  | > 100 µM (inactive) |  | > 100 µM (inactive) | > 100 µM (inactive) | > 100 µM (inactive) | > 100 µM (inactive) |  | > 100 µM (inactive) | > 100 µM (inactive) |
| COc1ncnc2c1cnn2Cc1cn(COCC(O)CO)nn1 (stereo not given) | > 100 µM (inactive) | > 100 µM (inactive) | > 100 µM (inactive) | > 100 µM | 22.8 µM (inactive) | > 100 µM (inactive) | > 100 µM (inactive) |  | > 100 µM (inactive) |  | 10.8 µM (inactive) | > 100 µM (inactive) | > 100 µM (inactive) | > 100 µM (inactive) | > 100 µM (inactive) | > 100 µM (inactive) | > 100 µM (inactive) | > 100 µM (inactive) | > 100 µM (inactive) |  |
| OC(c1cc2ccc(C(F)(F)F)cc2c2cc(C(F)(F)F)ccc12)C1CCCCN1 (stereo not given) | 1.33 µM (inactive) | 1.8 µM (inactive) | 1.46 µM (inactive) | 1.79 µM | 1.74 µM (inactive) | 1.88 µM (inactive) | 1.48 µM (inactive) | 0.0498 µM (active) |  | 1.95 µM (inactive) | 1.7 µM (inactive) | 1.77 µM (inactive) | 2.17 µM (inactive) |  | 1.69 µM (inactive) | 1.91 µM (inactive) | 1.84 µM (inactive) | 1.71 µM (inactive) | 1.41 µM (inactive) |  |
| Cc1cc(C)c2c(O)cc(-c3cccc(Cl)c3)nc2n1 | 2.12 µM (inactive) |  | 0.0791 µM (active) | 0.101 µM | 21.9 µM (inactive) | 0.134 µM (active) | 0.0115 µM (active) | 0.18 µM (active) | 0.391 µM (active) | 0.0968 µM (active) | 0.0356 µM (active) | 77.3 µM (inactive) | 0.148 µM (active) | 0.0492 µM (active) | 0.119 µM (active) |  | 0.349 µM (active) | 0.206 µM (active) | 3.34 µM (inactive) | 0.179 µM (active) |
| CCc1cc2c(oc3cc(C)ccc32)c(=O)n1C | > 10 µM (inactive) |  | > 10 µM (inactive) | > 10 µM | > 10 µM (inactive) | > 10 µM (inactive) | > 10 µM (inactive) | > 10 µM (inactive) | > 10 µM (inactive) | > 10 µM (inactive) | > 10 µM (inactive) | > 10 µM (inactive) |  | > 10 µM (inactive) | > 10 µM (inactive) | > 10 µM (inactive) | > 10 µM (inactive) | > 10 µM (inactive) | > 10 µM (inactive) | > 10 µM (inactive) |
| Cc1nnc2n1-c1ccccc1-c1[nH]c3ccccc3c1C2 | 39.9 µM (inactive) | 51.1 µM (inactive) | 54.8 µM (inactive) |  | 93.8 µM (inactive) | 43.1 µM (inactive) | 60.1 µM (inactive) | 78.9 µM (inactive) | > 100 µM (inactive) | 30.7 µM (inactive) |  | 45.2 µM (inactive) | 32.2 µM (inactive) | 56.1 µM (inactive) | > 100 µM (inactive) |  | > 100 µM (inactive) |  | 28.8 µM (inactive) | 44.1 µM (inactive) |
| Nc1ncnc2c1ncn2C1C=CC(COS(N)(=O)=O)C1 (stereo not given) | 23.9 µM (inactive) | 3.28 µM (inactive) | 9.38 µM (inactive) | 9.27 µM | 15.7 µM (inactive) | 22.2 µM (inactive) | 35.2 µM (inactive) | > 100 µM (inactive) | 55.1 µM (inactive) | 12.2 µM (inactive) |  | 34.3 µM (inactive) | 2.93 µM (inactive) | 40.9 µM (inactive) | 0.676 µM (active) | 39.3 µM (inactive) | 9.23 µM (inactive) | 5.26 µM (inactive) | 79.1 µM (inactive) | 12.4 µM (inactive) |
| c1ccc(Cc2cccc3cc(-c4ccc(-c5ccccc5)cc4)[nH]c23)cc1 | > 100 µM (inactive) | 75.7 µM (inactive) | > 100 µM (inactive) | > 100 µM | > 100 µM (inactive) | 52.8 µM (inactive) | > 100 µM (inactive) | 1.76 µM (inactive) | > 100 µM (inactive) | > 100 µM (inactive) | 17.2 µM (inactive) | 19.7 µM (inactive) | 71.4 µM (inactive) | > 100 µM (inactive) | 53.8 µM (inactive) | > 100 µM (inactive) | 93.3 µM (inactive) | 70.6 µM (inactive) | > 100 µM (inactive) |  |
| Nc1ncnc2ccc(Sc3ccc4ncnc(N)c4c3)cc12 | > 100 µM (inactive) | > 100 µM (inactive) | > 100 µM (inactive) | > 100 µM | 71.3 µM (inactive) | > 100 µM (inactive) | > 100 µM (inactive) | > 100 µM (inactive) | > 100 µM (inactive) | > 100 µM (inactive) |  | > 100 µM (inactive) | > 100 µM (inactive) | > 100 µM (inactive) | > 100 µM (inactive) | > 100 µM (inactive) | > 100 µM (inactive) | > 100 µM (inactive) | > 100 µM (inactive) | > 100 µM (inactive) |
| O=CNNC(=O)Nc1cccc2ccccc12 | > 100 µM (inactive) |  | > 100 µM (inactive) | > 100 µM | > 10 µM (inactive) | > 100 µM (inactive) | > 100 µM (inactive) | > 100 µM (inactive) | 67.1 µM (inactive) | > 100 µM (inactive) |  | > 100 µM (inactive) | > 100 µM (inactive) | > 100 µM (inactive) | > 100 µM (inactive) |  | > 100 µM (inactive) | > 100 µM (inactive) | > 100 µM (inactive) | > 100 µM (inactive) |
| NC(=O)CN1CC(C2=C(O)CN(CC(N)=O)C2=O)=CC1=O | > 100 µM (inactive) | > 100 µM (inactive) | > 100 µM (inactive) | > 100 µM | > 100 µM (inactive) | > 100 µM (inactive) | > 100 µM (inactive) | > 100 µM (inactive) | > 100 µM (inactive) | > 100 µM (inactive) | > 100 µM (inactive) | > 100 µM (inactive) | > 100 µM (inactive) | > 100 µM (inactive) | > 100 µM (inactive) | > 100 µM (inactive) | > 100 µM (inactive) | > 100 µM (inactive) | 85.7 µM (inactive) |  |
